We go through 24 molecules from publication PMC7918738, “Microtubule Destabilizing Sulfonamides as an Alternative to Taxane-Based Chemotherapy” (International Journal of Molecular Sciences, 2021).

The subject of assay [1] is HeLa (cervix epithelioid carcinoma). The assay can be described thus: Antiproliferative activity against HeLa (XTT colorimetric method). The conditions noted are these: Homo sapiens, 72 h treatment. Type of assay: cell-based. The procedure:
(§1) The in vitro antiproliferative activity of MDS at 1 µM after 72 h treatments was evaluated by a colorimetric method against the human tumor cell lines HeLa (cervix epithelioid carcinoma) and MCF7 (breast adenocarcinoma). Compounds showing more than 40% inhibition at 1 µM in at least three independent assays were evaluated in a range of concentrations between 0.1 nM and 10 µM for the determination of half-maximal inhibitory concentrations (IC50) (Table 1). Paclitaxel, CA-4, and ABT-751 were used as references.
(§2) MCF7 (human breast carcinoma), SKOV-3 (human ovarian carcinoma), OVCAR-3 (human ovarian carcinoma), OVCAR-8 (human ovarian carcinoma), and HeLa (human cervical carcinoma) cell lines were cultured in Dulbecco’s Modified Eagle’s Medium (DMEM) (Gibco, Thermo Fischer Scientific) containing 10% (v/v) heat-inactivated fetal bovine serum (HIFBS) (Lonza-Cambrex, Karlskoga, Sweden), 2 mM L-glutamine (Lonza-Cambrex, Karlskoga, Sweden), 100 μg/mL streptomycin, and 100 IU/mL penicillin (Lonza-Cambrex) at 37 °C in humidified 95% air and 5% CO2. HT-29 (human colon carcinoma), IGROV-1 (human ovarian carcinoma), and A2780 (human ovarian carcinoma) cell lines were cultured in RPMI 1640 medium (Gibco, Thermo Fischer Scientific) supplemented with 10% HIFBS, 100 μg/mL streptomycin, and 100 IU/mL penicillin at 37 °C in humidified 95% air and 5% CO2 atmosphere. The presence of mycoplasma was routinely checked with MycoAlert kit (Lonza-Cambrex) and only mycoplasma-free cells were used in the experiments. Ovarian tumor cell lines were originally acquired from Dr Atanasio Pandiella from Centro de Investigación del Cáncer (CIC), Salamanca, Spain. HeLa, HT-29 and MCF7 tumor cell lines were provided by Dr Faustino Mollinedo from Centro de Investigaciones Biológicas Margarita Salas, Madrid, Spain.
(§3) MCF7, HeLa, and HT-29 cell proliferation, when treated with the corresponding compounds, were determined using the XTT (sodium 3’-[1(phenylaminocarbonyl)-3,4-tetrazolium]-bis(4-methoxy-6-nitro)-benzenesulfonic acid hydrate) cell proliferation kit (Roche Molecular Biochemicals, Mannheim, Germany). A freshly prepared mixture of XTT labeling reagent with 0.02% (v/v) PMS (N-methyl-dibenzopyrazine methyl sulfate) electron coupling reagent was added to cells (50 µL/well in 96-well plates, total volume of 160 µL/well). Cells were incubated under standard culture conditions for 4 h (MCF7 and HeLa) or 6 h (HT-29). The absorbance of the formazan product generated was measured at 450 nm using a multi-well plate reader. SKOV-3, OVCAR-3, OVCAR-8, IGROV-1, A-2780 cell proliferation, when treated with the corresponding compound, were determined using MTT (3-(4,5-dimethylthiazol-2-yl)-2,5-diphenyl-2H-tetrazolium bromide) (Sigma-Aldrich, St. Louis, MO, USA). MTT in Phosphate Buffer Saline (PBS) (5 mg/ml) was added to cells (110 µL/well in 24-well plates, total volume of 1110 µL/well). After 1 hour of incubation, the medium was aspirated, and formazan violet crystals were dissolved in dimethyl sulfoxide (DMSO) (500 µL/well). Absorbance was measured at 570 nm in a plate reader (Ultra Evolution, Tecan, Männedorf, Suiza). To determine cell viability, cells in exponential growth phase were seeded (100 µL/well in 96-well plates and 1000 µL/well in 24-well plates) with appropriate cell line concentration (1.5·10^4 cells/mL for MCF7 and HeLa, 3·10^4 cells/mL for HT-29, and 1·10^4 cells/mL for SKOV-3, OVCAR-3, OVCAR-8, IGROV-1, and A-2780) in complete RPMI 1640 or DMEM medium at 37°C and 5% CO2 atmosphere. After 24 h incubation, to allow cells to attach to the plates, all compounds were added at 1 µM concentration and the effect on the proliferation was evaluated 72 h post-treatment. Compounds showing antiproliferative effects at tested concentration were selected for IC50 calculation (50% inhibitory concentration with respect to the untreated controls) from 10^−5 to 10^−10 M concentration. Non-linear curves fitting the experimental data were carried out for each compound. […]
In general terms: Formazan colour is commonly taken as a measure of viable cells.

The subject of assay [2] is MCF7 (breast adenocarcinoma). The assay can be described thus: Antiproliferative activity against MCF7 (XTT colorimetric method). The conditions noted are these: Homo sapiens, 72 h treatment. The assay is classed as cell-based. The procedure:
as §1, §2, §3

Assay [3] has as its system HT-29 (colon adenocarcinoma). The assay can be described thus: Antiproliferative activity against CA-4-resistant HT-29 with or without verapamil (sensitivity to MDR pumps, XTT). The assay is classed as cell-based, human. The conditions noted are these: for IC50: Homo sapiens, read-out: Antiproliferative Activity IC50 HT-29; for Difference between pairs of HT-29 IC50 values in the presence or absence of verapamil: 10 µM verapamil, up to two-fold change counted as not significant.
From the text: Detecting changes in drug potency when inhibiting MDR-mediated efflux reflect that these transporters reduce the intracellular drug concentration. HT-29 has been reported to express moderate levels of MDR1, accounting for a resistant phenotype. A comparison of the antiproliferative IC50 values of each MDS in the presence or absence of verapamil provides an estimate of the susceptibility of each compound to efflux pumps.
as §2
MCF7, HeLa, and HT-29 cell proliferation, when treated with the corresponding compounds, were determined using the XTT (sodium 3’-[1(phenylaminocarbonyl)-3,4-tetrazolium]-bis(4-methoxy-6-nitro)-benzenesulfonic acid hydrate) cell proliferation kit (Roche Molecular Biochemicals, Mannheim, Germany). A freshly prepared mixture of XTT labeling reagent with 0.02% (v/v) PMS (N-methyl-dibenzopyrazine methyl sulfate) electron coupling reagent was added to cells (50 µL/well in 96-well plates, total volume of 160 µL/well). Cells were incubated under standard culture conditions for 4 h (MCF7 and HeLa) or 6 h (HT-29). The absorbance of the formazan product generated was measured at 450 nm using a multi-well plate reader. SKOV-3, OVCAR-3, OVCAR-8, IGROV-1, A-2780 cell proliferation, when treated with the corresponding compound, were determined using MTT (3-(4,5-dimethylthiazol-2-yl)-2,5-diphenyl-2H-tetrazolium bromide) (Sigma-Aldrich, St. Louis, MO, USA). MTT in Phosphate Buffer Saline (PBS) (5 mg/ml) was added to cells (110 µL/well in 24-well plates, total volume of 1110 µL/well). After 1 hour of incubation, the medium was aspirated, and formazan violet crystals were dissolved in dimethyl sulfoxide (DMSO) (500 µL/well). Absorbance was measured at 570 nm in a plate reader (Ultra Evolution, Tecan, Männedorf, Suiza). To determine cell viability, cells in exponential growth phase were seeded (100 µL/well in 96-well plates and 1000 µL/well in 24-well plates) with appropriate cell line concentration (1.5·10^4 cells/mL for MCF7 and HeLa, 3·10^4 cells/mL for HT-29, and 1·10^4 cells/mL for SKOV-3, OVCAR-3, OVCAR-8, IGROV-1, and A-2780) in complete RPMI 1640 or DMEM medium at 37°C and 5% CO2 atmosphere. After 24 h incubation, to allow cells to attach to the plates, all compounds were added at 1 µM concentration and the effect on the proliferation was evaluated 72 h post-treatment. […] Non-linear curves fitting the experimental data were carried out for each compound. Compounds were dissolved in DMSO and the final solvent concentrations never exceeded 0.5% (v/v). The control wells included […] with 0.5% (v/v) DMSO and the positive control. 10 µM verapamil was included as a control for the HT-29 cell line.

Where [4] appears, read: HT-29, 72 h, XTT, without verapamil.

Where two headings read alike, the source gives them in different places. A value given as a limit tells only on which side of the number the result lay.

Broadly, the IC50 is the concentration that gives 50% inhibition. For `COc1ccc(S(=O)(=O)N(C)c2cc(OC)c(OC)c(OC)c2)cc1` [Compound 2a], the values for the IC50 in assay [1], in assay [2] and in assay [3] (setting [4]) were 71 nM, 127 nM and 143 nM, respectively.
Regarding `COc1ccc(S(=O)(=O)N(C)c2cc(OC)c(OC)c(OC)c2N)cc1` [Compound 13], the IC50 in assay [1], in assay [2] and in assay [3] (setting [4]) was above 1000 nM in each case.
Regarding `COc1ccc(S(=O)(=O)N(C(C)=O)c2cc(OC)c(OC)c(OC)c2)cc1` [Compound 5], the IC50 turned out to be 287 nM in assay [1], 270 nM in assay [2] and 747 nM in assay [3] (setting [4]).
In the same order, the values of `COc1ccc(S(=O)(=O)N(CC#N)c2cc(OC)c(OC)c(OC)c2)cc1` [Compound 6] are 143 nM, 275 nM and 230 nM.
Consider `COc1ccc(S(=O)(=O)Nc2cc(OC)c(OC)c(OC)c2NC=O)cc1` [Compound 17], for which the 50% inhibitory concentration (IC50) in assay [1], in assay [2] and in assay [3] (setting [4]) was above 1000 nM each time.
In the case of `COc1ccc(S(=O)(=O)Nc2cc(OC)c(OC)c(OC)c2)cc1` [Compound 1a], the results for the IC50 in assay [1], in assay [2] and in assay [3] (setting [4]) were 240 nM, 375 nM and 897 nM, respectively.
As for `COc1ccc(S(=O)(=O)Nc2cc(OC)c(OC)c(OC)c2NC(C)=O)cc1` [Compound 15], the 50% inhibitory concentration (IC50) in assay [1], in assay [2] and in assay [3] (setting [4]) was above 1000 nM throughout.
Take `COc1ccc(S(=O)(=O)Nc2cc(OC)c(OC)c(OC)c2[N+](=O)[O-])cc1` [Compound 11]: the IC50 in assay [1], in assay [2] and in assay [3] (setting [4]) was above 1000 nM in each case.
As for `CCOC(=O)CN(c1cc(OC)c(OC)c(OC)c1)S(=O)(=O)c1ccc(N(C)C)cc1` [Compound 33], the IC50 in assay [1] amounted to 99 nM; in assay [2], 91 nM; in assay [3] (setting [4]), 863 nM.
The corresponding values for `COc1ccc(S(=O)(=O)Nc2cc(OC)c(OC)c(OC)c2N)cc1` [Compound 12] are above 1000 nM, above 1000 nM and above 1000 nM.
As for `COc1cc(N(C(=O)OCc2ccccc2)S(=O)(=O)c2ccc(N(C)C)cc2)cc(OC)c1OC` [Compound 35b], the IC50 in assay [1] was above 1000 nM; in assay [2] it was above 1000 nM; in assay [3] (setting [4]), 690 nM.
Regarding `COc1ccc(S(=O)(=O)Nc2cc(OC)c(OC)c(OC)c2NCN(c2cc(OC)c(OC)c(OC)c2N)S(=O)(=O)c2ccc(OC)cc2)cc1` [Compound 14], the IC50 in assay [1], in assay [2] and in assay [3] (setting [4]) was above 1000 nM throughout.
Turning to `CNc1ccc(S(=O)(=O)N(C)c2cc(OC)c(OC)c(OC)c2)cc1` [Compound 38], the concentration for half-maximal inhibition (IC50) turned out to be 44 nM in assay [1], 61 nM in assay [2] and 59 nM in assay [3] (setting [4]). Moreover, the “Difference between pairs of HT-29 IC50 values in the presence or absence of verapamil” value in assay [3] is listed as “no significant differences”.
Take `CCN(c1cc(OC)c(OC)c(OC)c1)S(=O)(=O)c1ccc(OC)cc1` [Compound 3]: the results for the IC50 in assay [1], in assay [2] and in assay [3] (setting [4]) were 99 nM, 87 nM and 913 nM, respectively.
In the same order, the values of `CNc1cc(S(=O)(=O)N(C)c2cc(OC)c(OC)c(OC)c2)ccc1OC` [Compound 48a] are 440 nM, 1190 nM and above 1000 nM.
In the same order, the values of `CNc1ccc(S(=O)(=O)Nc2cc(OC)c(OC)c(OC)c2)cc1` [Compound 37] are 607 nM, above 1000 nM and 807 nM.
As to `COc1ccc(S(=O)(=O)N(Cc2ccccc2)c2cc(OC)c(OC)c(OC)c2)cc1N` [Compound 45], the IC50 in assay [1] worked out at 25 nM; in assay [2] it was 48 nM; in assay [3] (setting [4]), 300 nM. Also, the “Difference between pairs of HT-29 IC50 values in the presence or absence of verapamil” value in assay [3] is given as “no significant differences”.
As for `COc1ccc(S(=O)(=O)N(CCBr)c2cc(OC)c(OC)c(OC)c2)cc1` [Compound 4], the IC50 is 94 nM in assay [1]; 340 nM in assay [2]; 503 nM in assay [3] (HT-29, 72 h).
`CCOC(=O)CNc1cc(S(=O)(=O)N(C)c2cc(OC)c(OC)c(OC)c2)ccc1OC` [Compound 46]: the half-inhibitory concentration (IC50) in assay [1] is 210 nM; in assay [2], 48 nM; in assay [3] (setting [4]), 113 nM.
The corresponding values for `COc1ccc(S(=O)(=O)Nc2cc(OC)c(OC)c(OC)c2N(C)C)cc1` [Compound 18] are above 1000 nM, above 1000 nM and above 1000 nM.
In the same order, the values of `COc1ccc(S(=O)(=O)N(C)c2cc(OC)c(OC)c(OC)c2NC(C)=O)cc1` [Compound 16] are above 1000 nM, above 1000 nM and above 1000 nM.
In the same order, the values of `COc1ccc(S(=O)(=O)n2nnc3c(OC)c(OC)c(OC)cc32)cc1` [Compound 23] are above 1000 nM, above 1000 nM and above 1000 nM.
Turning to `COc1cc(N(C)S(=O)(=O)c2ccc(N)cc2)cc(OC)c1OC` [Compound 27], the half-inhibitory concentration (IC50) in assay [1], in assay [2] and in assay [3] (setting [4]) was above 1000 nM throughout.
With `CCN(c1cc(OC)c(OC)c(OC)c1)S(=O)(=O)c1ccc(N(C)C)cc1` [Compound 30], the results for the IC50 in assay [1], in assay [2] and in assay [3] (setting [4]) were 66 nM, 81 nM and 460 nM, respectively.
